Numbers after ± are expanded uncertainties.

For data set [1] the following is noted: Crystal; DTA.
A short description of data set [2]: Molar enthalpy of transition or fusion. The settings on record: Crystal; DSC.

Consider `CC(=O)Nc1ccc(Cl)cc1` [N(4-chlorophenyl)ethanamide], for which, in data set [1], the Normal melting temperature worked out at 175.7 ± 1.1 °C. In addition, the “Molar enthalpy of transition or fusion” value in data set [2] turned out to be 6.49 ± 0.234 kcal/mol.
